Measurements published in ChEMBL document CHEMBL3098061, “Design and synthesis of an aminopiperidine series of γ-secretase modulators” (Bioorg Med Chem Lett, 2014).
≈ marks a conversion by molar mass, not a printed value.

System: not listed separately
Assay: Modulation of gamma-secretase in rat fetus primary neurons assessed as inhibition of amyloid beta42 production after 1 to 3 days by ELISA
Conditions: not given

Row | IC50 [nM] | Compound
1 | 250 | COc1cc(C(=O)N[C@H]2CCCN(Cc3ccc(Br)cc3)C2)ccc1-n1cnc(C)c1

System: not listed separately
Assay: Aqueous solubility of the compound at pH 7.4
Assay type: physicochemical
Conditions: not given

Row | solubility [µg/mL] | Compound
2 | 8 (≈ 16.5 µM) | COc1cc(C(=O)N[C@H]2CCCN(Cc3ccc(Br)cc3)C2)ccc1-n1cnc(C)c1

System: Mus musculus
Assay: Reduction in amyloid beta42 production in wild type mouse plasma at 100 mg/kg, po
Assay type: functional
Set-up: scale not given: the % may be the effect or the level left
Conditions: not given

Row | Compound | Activity [%]
3 | COc1cc(C(=O)N[C@H]2CCCN(Cc3ccc(Br)cc3)C2)ccc1-n1cnc(C)c1 | 66

System: Mus musculus
Assay: Reduction in amyloid beta42 production in wild type mouse hippocampus at 100 mg/kg, po
Assay type: functional
Set-up: scale not given: the % may be the effect or the level left
Conditions: not given

Row | Compound | Activity [%]
4 | COc1cc(C(=O)N[C@H]2CCCN(Cc3ccc(Br)cc3)C2)ccc1-n1cnc(C)c1 | 55

Species: Rattus norvegicus
Assay: Modulation of gamma-secretase in rat fetus primary neurons assessed as inhibition of amyloid beta42 production at 2.5 uM after 1 to 3 days by ELISA
Conditions: not given

Row | inhibition [%] | Compound
5 | 34 | COc1cc(C(=O)N[C@H]2CCCN(C(=O)c3ccc(C(F)(F)F)cc3)C2)ccc1-n1cnc(C)c1
6 | 45 | COc1ccc(CN2CCCC(NC(=O)c3ccc(-n4cnc(C)c4)c(OC)c3)C2)cc1 (racemic)
7 | 25 | COc1cc(C(=O)NC2CCCN(C(=O)NCc3ccccc3)C2)ccc1-n1cnc(C)c1 (racemic)
8 | 82 | COc1cc(C(=O)NC2CCCN(Cc3ccc(C)cc3)C2)ccc1-n1cnc(C)c1 (racemic)
9 | 62 | COc1cc(C(=O)NC2CCCN(Cc3ccccc3C)C2)ccc1-n1cnc(C)c1 (racemic)
10 | 55 | COc1cc(C(=O)N[C@H]2CCCN(C(=O)c3ccc(C)cc3)C2)ccc1-n1cnc(C)c1
11 | 28 | COc1cc(C(=O)NC2CCCN(C(=O)NCc3ccc(C)cc3)C2)ccc1-n1cnc(C)c1 (racemic)
12 | 90 | COc1cc(C(=O)N[C@H]2CCCN(Cc3ccc(C)cc3)C2)ccc1-n1cnc(C)c1
13 | 93 | COc1cc(C(=O)NC2CCCN(Cc3ccc(Br)cc3)C2)ccc1-n1cnc(C)c1 (racemic)
14 | 55 | COc1cc(C(=O)N[C@@H]2CCCN(Cc3ccc(Br)cc3)C2)ccc1-n1cnc(C)c1
15 | 37 | COc1cc(C(=O)NC2CCCN(Cc3ccccc3)C2)ccc1-n1cnc(C)c1 (racemic)
16 | 92 | COc1cc(C(=O)N[C@H]2CCCN(Cc3ccc(C(F)(F)F)cc3)C2)ccc1-n1cnc(C)c1
17 | 64 | COc1cc(C(=O)N[C@H]2CCCN(C(=O)c3ccc(Br)cc3)C2)ccc1-n1cnc(C)c1
18 | 36 | COc1cc(C(=O)N[C@@H]2CCCN(Cc3ccc(C)cc3)C2)ccc1-n1cnc(C)c1
19 | 47 | COc1cc(C(=O)NC2CCCN(C(=O)NCc3ccc(Br)cc3)C2)ccc1-n1cnc(C)c1 (racemic)
20 | 54 | COc1cc(C(=O)NC2CCCN(Cc3cccc(C)c3)C2)ccc1-n1cnc(C)c1 (racemic)
21 | 97 | COc1cc(C(=O)N[C@H]2CCCN(Cc3ccc(Br)cc3)C2)ccc1-n1cnc(C)c1

More lines, now with the values behind:

Row | Compound | inhibition [%]
22 | COc1cc(C(=O)N(C(C)C)C2CCCN(Cc3cccc(C(F)(F)F)c3)C2)ccc1-n1cnc(C)c1 (configuration not stated) | < 1
23 | COc1cc(C(=O)N[C@@H]2CCCN(Cc3ccc(C(F)(F)F)cc3)C2)ccc1-n1cnc(C)c1 | 57
24 | COc1cc(C(=O)N2CCC(NCc3cccc(C(F)(F)F)c3)C2)ccc1-n1cnc(C)c1 (configuration not stated) | 39
25 | COc1cc(C(=O)N2CCN(Cc3cccc(C(F)(F)F)c3)CC2)ccc1-n1cnc(C)c1 | 18
26 | COc1cc(C(=O)N[C@H]2CCCN(Cc3cccc(C(F)(F)F)c3)C2)ccc1-n1cnc(C)c1 | 82
27 | COc1cc(C(=O)NC2CCCN(Cc3ccc(C(F)(F)F)cc3)C2)ccc1-n1cnc(C)c1 (racemic) | 90
28 | COc1cc(C(=O)NC2CCN(Cc3cccc(C(F)(F)F)c3)C2)ccc1-n1cnc(C)c1 (configuration not stated) | 31
29 | COc1cc(C(=O)N2CC3CC2CN3Cc2cccc(C(F)(F)F)c2)ccc1-n1cnc(C)c1 (configuration not stated) | 51
30 | CCN(C(=O)c1ccc(-n2cnc(C)c2)c(OC)c1)C1CCCN(Cc2cccc(C(F)(F)F)c2)C1 (configuration not stated) | < 1
31 | COc1cc(C(=O)NC2CCN(Cc3cccc(C(F)(F)F)c3)CC2)ccc1-n1cnc(C)c1 | 78
32 | COc1cc(C(=O)N[C@@H]2CCCN(Cc3cccc(C(F)(F)F)c3)C2)ccc1-n1cnc(C)c1 | 72
33 | COc1cc(C(=O)N2C3CCC2CN(Cc2cccc(C(F)(F)F)c2)C3)ccc1-n1cnc(C)c1 | 19
34 | COc1cc(C(=O)N2CCCC(NCc3cccc(C(F)(F)F)c3)C2)ccc1-n1cnc(C)c1 (configuration not stated) | 17
35 | COc1cc(C(=O)NC2CC3CCC(C2)N3Cc2cccc(C(F)(F)F)c2)ccc1-n1cnc(C)c1 (configuration not stated) | 40
36 | COc1cc(C(=O)N(C)C2CCCN(Cc3cccc(C(F)(F)F)c3)C2)ccc1-n1cnc(C)c1 (configuration not stated) | < 1

System: not listed separately
Assay: Permeability of the compound at pH 7.4 by PAMPA
Assay type: ADME
Conditions: read-out: permeability

Row | Papp [×10⁻⁶ cm/s] | Compound
37 | 50 | COc1cc(C(=O)N[C@H]2CCCN(Cc3ccc(Br)cc3)C2)ccc1-n1cnc(C)c1
